The record followed here is patent US20110268729A1, “TREATMENT OF AMYOTROPHIC LATERAL SCLEROSIS BY NOGO-A-ANTAGONIST” (priority 2008, published 2011).

This experiment has as its system SOD1^G93A mice. The experiment in a line: In vivo ALS model muscle physiology study with 2A10 and riluzole. On the set-up: species or system mouse. The method, then: Fresh solutions were prepared once a week with the total consumed volume measured in order to ensure a constant daily and weekly dose.

On to `Nc1nc2ccc(OC(F)(F)F)cc2s1` [Riluzole, 2-Amino-6-(trifluoromethoxy)benzothiazole], for which the “TA maximum tetanic force” value (day 90, relative to SOD1-B vehicle group, riluzole 30 mg/kg p 0.0607, anti-Nogo-A 30 mg/kg p 0.1219, combination p 0.039) was “failed to reach statistical significance”. Besides, the “TA time to 1/2 relaxation” value (day 90, vs SOD1 vehicle, riluzole plus 3 mg/kg anti-Nogo-A p value 0.0212) is given as “trend to normalisation”.
